This is an account of results in patent US20230049231A1 (priority 2019, published 2023).

As usually defined, the IC50 is the point on the concentration scale where inhibition reaches its midpoint.

For one assay, the target named is T1, hERG channel (Homo sapiens, UniProt Q12809).
T1 construct: expressed in transfected cells
The experiment in a line: hERG electrophysiology, automated whole-cell patch clamp (Patchliner). The assay is classed as cell-based. Summed up:
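Automated whole-cell patch clamp on CHO-K1 cells stably expressing hERG; 30 nM–100 μM applied cumulatively to the same cell, ≤0.3% DMSO. Pulses: −80 mV holding, +20 mV for 300 ms, −50 mV for 300 ms tail, 0.3 Hz, 70 per concentration. Last-pulse AUC and peak, normalized to control, were fitted to a Hill equation for IC50.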
Background: hERG is a cardiac potassium channel; its block is linked to QT prolongation.

The target in the next assay is T2, Kv1.3 potassium channel (Homo sapiens, UniProt P22001).
T2 construct: expressed in transfected cells
T2 sequence (P22001 whole entry): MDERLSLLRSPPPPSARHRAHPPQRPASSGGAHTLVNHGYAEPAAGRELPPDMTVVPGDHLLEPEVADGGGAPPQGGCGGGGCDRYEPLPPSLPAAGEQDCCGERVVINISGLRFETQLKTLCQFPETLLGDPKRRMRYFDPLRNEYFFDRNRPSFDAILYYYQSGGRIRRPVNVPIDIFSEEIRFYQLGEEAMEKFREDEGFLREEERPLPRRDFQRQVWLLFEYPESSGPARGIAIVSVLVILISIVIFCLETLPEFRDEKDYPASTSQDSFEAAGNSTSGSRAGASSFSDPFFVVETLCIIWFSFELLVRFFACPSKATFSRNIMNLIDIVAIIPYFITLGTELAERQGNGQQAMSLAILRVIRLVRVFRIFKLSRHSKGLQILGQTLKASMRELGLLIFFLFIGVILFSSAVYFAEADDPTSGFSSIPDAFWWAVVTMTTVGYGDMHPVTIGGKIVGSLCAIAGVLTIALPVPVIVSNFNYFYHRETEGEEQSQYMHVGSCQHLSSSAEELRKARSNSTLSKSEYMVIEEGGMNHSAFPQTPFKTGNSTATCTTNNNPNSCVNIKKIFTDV
The assay can be described thus: Kv1.3 potassium channel blocker activity, automated whole-cell patch clamp (Patchliner). The assay is classed as cell-based. Summed up:
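IC50 came from Hill-equation fits of peak and AUC currents from the final pulse at each concentration, normalized to compound-free control. Compounds applied consecutively at 30 nM to 100 μM (up to 0.3% DMSO) to Kv1.3-expressing CHO-K1 cells, P/4 leak subtraction. Pulses were +40 mV, 100 ms, from −90 mV holding, at 0.1 Hz on Patchliner.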
On the technique in general: The patch-clamp technique gives a direct electrical read-out from membranes.

Where [1] appears, read: hERG channel, whole-cell patch clamp.
Setting [2] is: Kv1.3 potassium channel, whole-cell patch clamp.
Setting [3] is: CHO-K1 cells stably expressing hERG, +20 mV 300 ms, -50 mV 300 ms tail current, 0.3 Hz.
Where [4] appears, read: CHO-K1 cells stably expressing Kv1.3, 100 ms pulses from -90 mV to +40 mV, 0.1 Hz.

T1 sequence (Q12809 whole entry): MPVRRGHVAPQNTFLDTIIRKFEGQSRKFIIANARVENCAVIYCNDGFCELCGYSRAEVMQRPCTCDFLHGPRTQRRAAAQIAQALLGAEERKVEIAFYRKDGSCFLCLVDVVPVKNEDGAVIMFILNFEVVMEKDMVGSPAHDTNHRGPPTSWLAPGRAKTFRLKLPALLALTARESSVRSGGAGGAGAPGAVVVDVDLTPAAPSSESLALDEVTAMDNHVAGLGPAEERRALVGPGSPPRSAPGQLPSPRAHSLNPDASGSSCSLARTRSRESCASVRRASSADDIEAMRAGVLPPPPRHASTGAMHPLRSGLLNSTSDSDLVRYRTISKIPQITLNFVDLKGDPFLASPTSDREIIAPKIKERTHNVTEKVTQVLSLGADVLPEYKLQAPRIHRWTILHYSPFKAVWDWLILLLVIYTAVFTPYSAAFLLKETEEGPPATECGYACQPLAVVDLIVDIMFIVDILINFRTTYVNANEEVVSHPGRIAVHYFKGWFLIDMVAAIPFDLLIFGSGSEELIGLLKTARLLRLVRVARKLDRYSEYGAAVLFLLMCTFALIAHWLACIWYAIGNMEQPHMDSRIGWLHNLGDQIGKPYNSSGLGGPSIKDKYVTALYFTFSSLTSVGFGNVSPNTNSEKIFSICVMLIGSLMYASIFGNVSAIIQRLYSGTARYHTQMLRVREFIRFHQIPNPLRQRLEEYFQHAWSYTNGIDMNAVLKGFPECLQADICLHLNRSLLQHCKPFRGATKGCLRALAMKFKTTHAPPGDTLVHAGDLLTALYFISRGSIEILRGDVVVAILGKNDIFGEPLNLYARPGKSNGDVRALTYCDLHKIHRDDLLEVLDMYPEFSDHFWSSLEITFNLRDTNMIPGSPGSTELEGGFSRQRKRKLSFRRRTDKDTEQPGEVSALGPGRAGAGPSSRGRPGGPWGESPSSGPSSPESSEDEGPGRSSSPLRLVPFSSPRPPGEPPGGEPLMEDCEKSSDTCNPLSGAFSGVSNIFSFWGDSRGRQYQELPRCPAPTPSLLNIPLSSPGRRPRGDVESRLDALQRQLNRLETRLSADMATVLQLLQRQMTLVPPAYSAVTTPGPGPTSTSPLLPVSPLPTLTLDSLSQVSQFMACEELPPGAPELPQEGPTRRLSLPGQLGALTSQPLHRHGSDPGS

Turning to `CNC(=O)[C@@H]1OC(=O)N2C[C@@H](c3c(O)ccc(Cl)c3Cl)C[C@@H]12` (single isomer, unassigned) [Compound 288], the 50% inhibitory concentration (IC50) at hERG channel (setting [1]) is above 30 µM; on Kv1.3 potassium channel (setting [2]), below 1 µM.
The corresponding values for `O=C1C(O)C(O)C[C@@H]2C[C@H](c3c(O)ccc(Cl)c3Cl)CN12` (stereo partly drawn) [Compound 226, (2R,8aS)-2-(2,3-dichloro-6-hydroxyphenyl)-6,7-dihydroxy-hexahydro-1H-indolizin-5-one] are above 30 µM and below 1 µM.
As for `C[C@H](C1CNC1)N1CC(=O)N2C[C@@H](c3c(O)ccc(Cl)c3Cl)C[C@H]2C1` (single isomer, unassigned; isomer 2) [Compound 138], the IC50 on hERG channel (setting [1]) was above 30 µM; against Kv1.3 potassium channel (setting [2]), below 1 µM.
In the case of `C[C@@H](CO)C(=O)N1CC(=O)N2CC[C@@H](c3c(O)ccc(Cl)c3Cl)C[C@H]2C1` [Compound 45, (8R,9aS)-8-(2,3-dichloro-6-hydroxyphenyl)-2-((S)-3-hydroxy-2-methylpropanoyl)octahydro-4H-pyrido[1,2-a]pyrazin-4-one], the half-maximal inhibitory concentration (IC50) on hERG channel (setting [3]) is above 30 µM; against Kv1.3 potassium channel (setting [4]), below 1 µM.
With `C[C@@H]1NC[C@@H]2C[C@H](c3c(O)ccc(Cl)c3Cl)CN2C1=O` [Compound 85, (3S,7R,8aS)-7-(2,3-dichloro-6-hydroxyphenyl)-3-methyl-hexahydro-1H-pyrrolo[1,2-a]pyrazin-4-one], the half-maximal inhibitory concentration (IC50) against hERG channel (setting [1]) is below 30 µM; at Kv1.3 potassium channel (setting [2]), below 1 µM.
Regarding `NC[C@@]1(O)CC(=O)N2C[C@@H](c3c(O)ccc(Cl)c3Cl)C[C@H]2C1` (single isomer, unassigned) [Compound 218], the IC50 on hERG channel (setting [1]) was above 30 µM; against Kv1.3 potassium channel (setting [2]) it was below 1 µM.
For `CNC(=O)CN1CC(=O)N2C[C@@H](c3c(O)ccc(Cl)c3Cl)C[C@H]2C1` [Compound 111, 2-[(7R,8aS)-7-(2,3-dichloro-6-hydroxyphenyl)-4-oxo-hexahydropyrrolo [1,2-a]pyrazin-2-yl]-N-methylacetamide], the figures for the half-maximal inhibitory concentration (IC50) against hERG channel (setting [1]) and on Kv1.3 potassium channel (setting [2]) were above 30 µM and below 1 µM, respectively.
Take `O=C1[C@@H](CO)OC[C@@H]2C[C@H](c3c(O)ccc(Cl)c3Cl)CN12` [Compound 50, (3R,7R,8aS)-7-(2,3-dichloro-6-hydroxyphenyl)-3-(hydroxymethyl)-hexahydropyrrolo[2,1-c][1,4]oxazin-4-one]: the 50% inhibitory concentration (IC50) against hERG channel (setting [3]) was above 30 µM; against Kv1.3 potassium channel (setting [4]) it was below 1 µM.
Consider `NC(=O)CN1CC(=O)N2C[C@@H](c3c(O)ccc(Cl)c3Cl)C[C@H]2C1` [Compound 110, 2-[(7R,8aS)-7-(2,3-dichloro-6-hydroxyphenyl)-4-oxo-hexahydropyrrolo [1,2-a]pyrazin-2-yl]acetamide], for which the half-inhibitory concentration (IC50) was above 30 µM against hERG channel (setting [1]) and below 1 µM against Kv1.3 potassium channel (setting [2]).
With `C[C@@H]1CN(C(=O)CO)C[C@@H]2C[C@H](c3c(O)ccc(Cl)c3Cl)CN2C1=O` (single isomer, unassigned; isomer 1) [Compound 91], the IC50 at hERG channel (setting [1]) was above 30 µM; against Kv1.3 potassium channel (setting [2]), below 1 µM.
`O=C1CC(CN2CCNCC2)C[C@@H]2C[C@H](c3c(O)ccc(Cl)c3Cl)CN12` (stereo partly drawn) [Compound 241, (2R,8aR)-2-(2,3-dichloro-6-hydroxyphenyl)-7-(piperazin-1-ylmethyl)-hexahydro-1H-indolizin-5-one]: the 50% inhibitory concentration (IC50) at hERG channel (setting [1]) is above 30 µM; at Kv1.3 potassium channel (setting [2]), below 1 µM.
As for `CN(C)CC(=O)N1CC(=O)N2CC[C@@H](c3c(O)ccc(Cl)c3Cl)C[C@H]2C1` [Compound 40, (8R,9aS)-8-(2,3-dichloro-6-hydroxyphenyl)-2-[2-(dimethylamino)acetyl]-hexahydro-1H-pyrido[1,2-a]pyrazin-4-one], the IC50 against hERG channel (setting [3]) was below 30 µM; at Kv1.3 potassium channel (setting [4]) it was below 1 µM.
In the case of `NCCN1C[C@@H]2C[C@H](c3c(O)ccc(Cl)c3Cl)CN2C1=O` [Compound 292, (6R,7aS)-2-(2-aminoethyl)-6-(2,3-dichloro-6-hydroxyphenyl)-tetrahydro-1H-pyrrolo[1,2-c]imidazol-3-one], the values for the IC50 on hERG channel (setting [1]) and on Kv1.3 potassium channel (setting [2]) were below 30 µM and below 1 µM, respectively.
As for `O=C1CNC[C@@H]2C[C@H](c3c(O)ccc(Cl)c3Cl)CCN12` [Compound 15], the IC50 at hERG channel (setting [3]) was below 30 µM; on Kv1.3 potassium channel (setting [4]), below 1 µM.
As for `O=C1O[C@@H]([C@H](O)CO)[C@@H]2C[C@H](c3c(O)ccc(Cl)c3Cl)CN12` (single isomer, unassigned) [Compound 261], the IC50 on hERG channel (setting [1]) was above 30 µM; on Kv1.3 potassium channel (setting [2]), below 1 µM.
In the case of `O=C(NC[C@@H]1OC(=O)N2C[C@@H](c3c(O)ccc(Cl)c3Cl)C[C@@H]12)C1CNC1` (single isomer, unassigned) [Compound 277], the IC50 on hERG channel (setting [1]) was above 30 µM; against Kv1.3 potassium channel (setting [2]), below 1 µM.
Take `C[C@H](CO)C(=O)N1CC(=O)N2CC[C@@H](c3c(O)ccc(Cl)c3Cl)C[C@H]2C1` [Compound 54, (8R,9aS)-8-(2,3-dichloro-6-hydroxyphenyl)-2-((R)-3-hydroxy-2-methylpropanoyl)octahydro-4H-pyrido[1,2-a]pyrazin-4-one]: the IC50 against hERG channel (setting [3]) was above 30 µM; at Kv1.3 potassium channel (setting [4]), below 1 µM.
For `CC[C@@H](O)C(=O)N1CC(=O)N2CC[C@@H](c3c(O)ccc(Cl)c3Cl)C[C@H]2C1` [Compound 21, (8R,9aS)-8-(2,3-dichloro-6-hydroxyphenyl)-2-[(2R)-2-hydroxybutanoyl]-hexahydro-1H-pyrido[1,2-a]pyrazin-4-one], the concentration for half-maximal inhibition (IC50) against hERG channel (setting [3]) is below 30 µM; against Kv1.3 potassium channel (setting [4]), below 1 µM.
As for `CN(CCO)[C@@H]1CC(=O)N2C[C@@H](c3c(O)ccc(Cl)c3Cl)C[C@H]2C1` (single isomer, unassigned) [Compound 204], the figures for the IC50 at hERG channel (setting [1]) and against Kv1.3 potassium channel (setting [2]) were above 30 µM and below 1 µM, respectively.
For `O=C1CN(CC2CNC2)C[C@@H]2C[C@H](c3c(O)ccc(Cl)c3Cl)CN12` [Compound 128, (7R,8aS)-2-(azetidin-3-ylmethyl)-7-(2,3-dichloro-6-hydroxyphenyl)-hexahydropyrrolo [1,2-a]pyrazin-4-one], the concentration for half-maximal inhibition (IC50) at hERG channel (setting [1]) was above 30 µM; against Kv1.3 potassium channel (setting [2]) it was below 1 µM.
`C[C@H]1C(=O)N2CC[C@@H](c3c(O)ccc(Cl)c3Cl)C[C@H]2CN1C(=O)CO` [Compound 46, (3S,8R,9aS)-8-(2,3-dichloro-6-hydroxyphenyl)-2-(2-hydroxyacetyl)-3-methyloctahydro-4H-pyrido[1,2-a]pyrazin-4-one]: the 50% inhibitory concentration (IC50) is above 30 µM on hERG channel (setting [3]) and below 1 µM on Kv1.3 potassium channel (setting [4]).
`O=C1C(CN2CCCC2)OC[C@@H]2C[C@H](c3c(O)ccc(Cl)c3Cl)CCN12` (stereo partly drawn) [Compound 181, (8R,9aS)-8-(2,3-dichloro-6-hydroxyphenyl)-3-(pyrrolidin-1-ylmethyl)-hexahydro-1H-pyrido[2,1-c][1,4]oxazin-4-one]: the 50% inhibitory concentration (IC50) was below 10 µM at hERG channel (setting [1]) and below 1 µM against Kv1.3 potassium channel (setting [2]).
Take `O=C1CN([C@@H]2CC[C@H]2O)C[C@@H]2C[C@H](c3c(O)ccc(Cl)c3Cl)CN12` (relative stereo) [Compound 159, (7R,8aS)-7-(2,3-dichloro-6-hydroxyphenyl)-2-[(1S,2S)-rel-2-hydroxycyclobutyl]-hexahydropyrrolo[1,2-a]pyrazin-4-one]: the half-maximal inhibitory concentration (IC50) is above 30 µM against hERG channel (setting [1]) and below 1 µM against Kv1.3 potassium channel (setting [2]).
Taken in the same sequence, the figures for `O=C1C[C@@H](N2CC[C@@H](O)C2)C[C@@H]2C[C@H](c3c(O)ccc(Cl)c3Cl)CN12` (single isomer, unassigned) [Compound 192] were above 30 µM and below 1 µM.
For the molecule `O=C([C@@H](O)CO)N1CC(=O)N2CC[C@@H](c3c(O)ccc(Cl)c3Cl)C[C@H]2C1` [Compound 23, (8R,9aS)-8-(2,3-dichloro-6-hydroxyphenyl)-2-[(2S)-2,3-dihydroxypropanoyl]-hexahydro-1H-pyrido[1,2-a]pyrazin-4-one], the IC50 against hERG channel (setting [3]) is above 30 µM; against Kv1.3 potassium channel (setting [4]) it was below 1 µM.
In the case of `O=C1C[C@H](N2CC(=O)N3C[C@@H](c4c(O)ccc(Cl)c4Cl)C[C@H]3C2)CN1` (single isomer, unassigned; isomer 2) [Compound 161], the figures for the 50% inhibitory concentration (IC50) against hERG channel (setting [1]) and at Kv1.3 potassium channel (setting [2]) were above 30 µM and below 1 µM, respectively.
For the molecule `C[C@H]1[C@@H]2C[C@H](c3c(O)ccc(Cl)c3Cl)CN2C(=O)CN1C(=O)CO` (single isomer, unassigned; isomer 2) [Compound 88], the IC50 was above 30 µM against hERG channel (setting [1]) and below 1 µM at Kv1.3 potassium channel (setting [2]).
`O=C1C[C@@H](N2CC(O)C2)C[C@@H]2C[C@H](c3c(O)ccc(Cl)c3Cl)CN12` (single isomer, unassigned) [Compound 196]: the results for the IC50 on hERG channel (setting [1]) and on Kv1.3 potassium channel (setting [2]) were above 30 µM and below 1 µM, respectively.
As for `O=C(NC1CNC1)[C@H]1CC(=O)N2C[C@@H](c3c(O)ccc(Cl)c3Cl)C[C@H]2C1` (single isomer, unassigned) [Compound 235], the IC50 against hERG channel (setting [1]) is above 30 µM; on Kv1.3 potassium channel (setting [2]), below 1 µM.
Turning to `O=C(C[C@@H](O)CO)N1CC(=O)N2C[C@@H](c3c(O)ccc(Cl)c3Cl)C[C@H]2C1` [Compound 78, (7R,8aS)-7-(2,3-dichloro-6-hydroxyphenyl)-2-[(3R)-3,4-dihydroxybutanoyl]-hexahydropyrrolo [1,2-a]pyrazin-4-one], the half-inhibitory concentration (IC50) against hERG channel (setting [1]) was above 30 µM; on Kv1.3 potassium channel (setting [2]), below 1 µM.
As for `O=C1CNC[C@@H]2CC(c3c(O)ccc(Cl)c3Cl)CN12` (stereo partly drawn) [Compound 33, (8aS)-7-(2,3-dichloro-6-hydroxyphenyl)-hexahydro-1H-pyrrolo[1,2-a]pyrazin-4-one trifluoroacetic acid], the IC50 on hERG channel (setting [3]) is below 30 µM; on Kv1.3 potassium channel (setting [4]) it was below 1 µM.
